Test results reported in ChEMBL document CHEMBL3045812, “Synthesis of fatty acid Schiff base esters as potential antimicrobial and chemotherapeutic agents” (Med Chem Res, 2013).
Converted amounts (≈) assume the structure as drawn. The source made the active and inactive calls. No cut-off for these calls is given here.

Key:
Candida parapsilosis [1] = assay: Antifungal activity against Candida parapsilosis MTCC 1744 after 24 hr by microtiter broth dilution method; type: functional
Candida albicans [2] = assay: Antifungal activity against Candida albicans MTCC 854 after 24 hr by microtiter broth dilution method; type: functional; conditions: MTCC 854, 24 h
Pichia sporocuriosa = assay: Antifungal activity against Issatchenkia hanoiensis MTCC 4755 after 24 hr by microtiter broth dilution method; type: functional
Candida albicans [3] = assay: Antifungal activity against Candida albicans MTCC 3018 after 24 hr by microtiter broth dilution method; type: functional; conditions: MTCC 3018, 24 h
Micrococcus luteus = assay: Antibacterial activity against Micrococcus luteus MTCC 2470 at 1.4 to 300 ug/ml after 24 hr by microtiter broth dilution method; type: functional, organism-based
HeLa = assay: Cytotoxicity against Homo sapiens (human) HeLa cells by tetrazolium-reduction assay; type: functional, cell-based
Staphylococcus aureus [4] = assay: Antibacterial activity against Staphylococcus aureus MLS16 MTCC 2940 after 24 hr by microtiter broth dilution method; type: functional
MDA-MB-231 = assay: Cytotoxicity against Homo sapiens (human) MDA-MB-231 cells by tetrazolium-reduction assay; type: functional, cell-based
Candida albicans [5] = assay: Antifungal activity against Candida albicans MTCC 3017 after 24 hr by microtiter broth dilution method; type: functional
Staphylococcus aureus [6] = assay: Antibacterial activity against Staphylococcus aureus MTCC 96 after 24 hr by microtiter broth dilution method; type: functional
A549 = assay: Cytotoxicity against Homo sapiens (human) A549 cells by tetrazolium-reduction assay; type: functional, cell-based
Candida albicans [7] = assay: Antifungal activity against Candida albicans MTCC 227 after 24 hr by microtiter broth dilution method; type: functional; conditions: MTCC 227, 24 h
MCF7 = assay: Cytotoxicity against Homo sapiens (human) MCF7 cells by tetrazolium-reduction assay; type: functional, cell-based
Escherichia coli = assay: Antibacterial activity against Escherichia coli MTCC 739 at 1.4 to 300 ug/ml after 24 hr by microtiter broth dilution method; type: functional, organism-based
Pichia kudriavzevii = assay: Antifungal activity against Pichia kudriavzevii MTCC 3020 after 24 hr by microtiter broth dilution method; type: functional
[Candida] aaseri [8] = Antifungal activity against Candida aaseri MTCC 1962 after 24 hr by microtiter broth dilution method; type: functional
Candida albicans [9] = assay: Antifungal activity against Candida albicans MTCC 1637 after 24 hr by microtiter broth dilution method; type: functional; conditions: MTCC 1637, 24 h
Candida albicans [10] = assay: Antifungal activity against Candida albicans MTCC 183 after 24 hr by microtiter broth dilution method; type: functional; conditions: MTCC 183, 24 h
Bacillus subtilis = assay: Antibacterial activity against Bacillus subtilis MTCC 121 after 24 hr by microtiter broth dilution method; type: functional
HepG2 = assay: Cytotoxicity against Homo sapiens (human) HepG2 cells by tetrazolium-reduction assay; type: functional, cell-based
Candida albicans [11] = assay: Antifungal activity against Candida albicans MTCC 7315 after 24 hr by microtiter broth dilution method; type: functional; conditions: MTCC 7315, 24 h
Raoultella planticola = assay: Antibacterial activity against Raoultella planticola MTCC 530 at 1.4 to 300 ug/ml after 24 hr by microtiter broth dilution method; type: functional, organism-based
Nakaseomyces glabratus [12] = assay: Antifungal activity against Candida glabrata MTCC 3019 after 24 hr by microtiter broth dilution method; type: functional
N2a = assay: Cytotoxicity against Mus musculus (mouse) Neuro2a cells by tetrazolium-reduction assay; type: functional, cell-based
Pseudomonas aeruginosa = assay: Antibacterial activity against Pseudomonas aeruginosa MTCC 2453 after 24 hr by microtiter broth dilution method; type: functional
Candida albicans [13] = assay: Antifungal activity against Candida albicans MTCC 3958 after 24 hr by microtiter broth dilution method; type: functional; conditions: MTCC 3958, 24 h
Candida albicans [14] = assay: Antifungal activity against Candida albicans MTCC 7315 at 1.4 to 300 ug/ml after 24 hr by microtiter broth dilution method; type: functional, organism-based
Candida albicans [15] = assay: Antifungal activity against Candida albicans MTCC 3017 at 1.4 to 300 ug/ml after 24 hr by microtiter broth dilution method; type: functional, organism-based
[Candida] aaseri [16] = Antifungal activity against Candida aaseri MTCC 1962 at 1.4 to 300 ug/ml after 24 hr by microtiter broth dilution method; type: functional, organism-based
Candida albicans [17] = assay: Antifungal activity against Candida albicans MTCC 3958 at 1.4 to 300 ug/ml after 24 hr by microtiter broth dilution method; type: functional, organism-based
Candida parapsilosis [18] = assay: Antifungal activity against Candida parapsilosis MTCC 1744 at 1.4 to 300 ug/ml after 24 hr by microtiter broth dilution method; type: functional, organism-based
Candida albicans [19] = assay: Antifungal activity against Candida albicans MTCC 227 at 1.4 to 300 ug/ml after 24 hr by microtiter broth dilution method; type: functional, organism-based
Nakaseomyces glabratus [20] = assay: Antifungal activity against Candida glabrata MTCC 3019 at 1.4 to 300 ug/ml after 24 hr by microtiter broth dilution method; type: functional, organism-based
Candida albicans [21] = assay: Antifungal activity against Candida albicans MTCC 183 at 1.4 to 300 ug/ml after 24 hr by microtiter broth dilution method; type: functional, organism-based
Candida albicans [22] = assay: Antifungal activity against Candida albicans MTCC 3018 at 1.4 to 300 ug/ml after 24 hr by microtiter broth dilution method; type: functional, organism-based
Candida albicans [23] = assay: Antifungal activity against Candida albicans MTCC 854 at 1.4 to 300 ug/ml after 24 hr by microtiter broth dilution method; type: functional, organism-based
Candida albicans [24] = assay: Antifungal activity against Candida albicans MTCC 1637 at 1.4 to 300 ug/ml after 24 hr by microtiter broth dilution method; type: functional, organism-based

MIC (Candida albicans [2]) [µg/mL]	MIC (Candida albicans [3]) [µg/mL]	MIC (Staphylococcus aureus [4]; MLS16 MTCC 2940, 24 h) [µg/mL]	MIC (Staphylococcus aureus [6]; MTCC 96, 24 h) [µg/mL]	MIC (Candida albicans [7]) [µg/mL]	MIC (Candida albicans [9]) [µg/mL]	MIC (Candida albicans [10]) [µg/mL]	MIC (Bacillus subtilis; MTCC 121, 24 h) [µg/mL]	MIC (Candida albicans [11]) [µg/mL]	MIC (Bacillus subtilis)	MIC (Pseudomonas aeruginosa)	SMILES	Activity (Micrococcus luteus)	Activity (HeLa)	IC50 (MDA-MB-231) [µM]	Activity (A549)	IC50 (MCF7; mcf7)	Activity (Escherichia coli)	Activity (HepG2)	Activity (Raoultella planticola)	Activity (N2a)	also measured
300 (≈ 925 µM)	75 (≈ 231 µM)	150 (≈ 462 µM)	37.5 (≈ 116 µM)	75 (≈ 231 µM)	150 (≈ 462 µM)	300 (≈ 925 µM)	300 (≈ 925 µM)	150 (≈ 462 µM)	–	–	CCCCCCC(=O)Oc1ccc(/C=N/Cc2cccnc2)cc1	inactive	inactive	15	inactive	Not Active	inactive	inactive	inactive	inactive	MIC (Candida parapsilosis [1]; Lodderomyces parapsilosis, MTCC 1744, 24 h): 300 µg/mL (≈ 925 µM); MIC (Pichia sporocuriosa; MTCC 4755, 24 h): 75 µg/mL (≈ 231 µM); MIC (Candida albicans [5]): inactive; MIC (Pichia kudriavzevii; MTCC 3020, 24 h): 75 µg/mL (≈ 231 µM); MIC ([Candida] aaseri [8]; Yamadazyma aaseri, MTCC 1962, 24 h): 75 µg/mL (≈ 231 µM); MIC (Nakaseomyces glabratus [12]): inactive; MIC (Pseudomonas aeruginosa; MTCC 2453, 24 h): 37.5 µg/mL (≈ 116 µM); MIC (Candida albicans [13]): 150 µg/mL (≈ 462 µM)
–	–	150 (≈ 380 µM)	150 (≈ 380 µM)	–	–	–	–	–	inactive	inactive	CCCCCCCCCCCC(=O)Oc1ccc(/C=N/Cc2cccnc2)cc1	inactive	inactive	18.9	inactive	–	inactive	inactive	inactive	inactive	Activity (Candida albicans [14]): inactive; Activity (Candida albicans [15]): inactive; Activity ([Candida] aaseri [16]): inactive; Activity (Candida albicans [17]): inactive; Activity (Candida parapsilosis [18]): inactive; Activity (Candida albicans [19]): inactive; IC50 (MCF7; Homo sapiens, MCF7, read-out: IC50): 17.6 µM; Activity (Nakaseomyces glabratus [20]): inactive; Activity (Candida albicans [21]): inactive; Activity (Candida albicans [22]): inactive; Activity (Candida albicans [23]): inactive; Activity (Candida albicans [24]): inactive

More lines, now with the values behind:

SMILES	MIC (Candida albicans [2]) [µg/mL]	MIC (Candida albicans [3]) [µg/mL]	MIC (Staphylococcus aureus [4]; MLS16 MTCC 2940, 24 h) [µg/mL]	MIC (Staphylococcus aureus [6]; MTCC 96, 24 h) [µg/mL]	MIC (Candida albicans [7]) [µg/mL]	MIC (Candida albicans [9]) [µg/mL]	MIC (Candida albicans [10]) [µg/mL]	MIC (Bacillus subtilis; MTCC 121, 24 h) [µg/mL]	MIC (Candida albicans [11]) [µg/mL]	MIC (Bacillus subtilis)	MIC (Pseudomonas aeruginosa)	Activity (Micrococcus luteus)	Activity (HeLa)	IC50 (MDA-MB-231) [µM]	Activity (A549)	IC50 (MCF7; mcf7)	Activity (Escherichia coli)	Activity (HepG2)	Activity (Raoultella planticola)	Activity (N2a)	also measured
CCCCCCCCCCCCCCCC(=O)Oc1ccc(/C=N/Cc2cccnc2)cc1	–	–	–	–	–	–	–	–	–	inactive	inactive	inactive	inactive	–	inactive	–	inactive	inactive	inactive	inactive	MIC (Staphylococcus aureus [4]): inactive; Activity (Candida albicans [14]): inactive; MIC (Staphylococcus aureus [6]): inactive; Activity (Candida albicans [15]): inactive; Activity ([Candida] aaseri [16]): inactive; Activity (Candida albicans [17]): inactive; Activity (Candida parapsilosis [18]): inactive; Activity (Candida albicans [19]): inactive; Activity (Nakaseomyces glabratus [20]): inactive; Activity (Candida albicans [21]): inactive; Activity (Candida albicans [22]): inactive; Activity (Candida albicans [23]): inactive; Activity (Candida albicans [24]): inactive
CCCCCCCCCCCCCC(=O)Oc1ccc(/C=N/Cc2cccnc2)cc1	300 (≈ 710 µM)	300 (≈ 710 µM)	75 (≈ 177 µM)	75 (≈ 177 µM)	300 (≈ 710 µM)	300 (≈ 710 µM)	300 (≈ 710 µM)	–	300 (≈ 710 µM)	inactive	inactive	inactive	inactive	26.6	inactive	Not Active	inactive	inactive	inactive	inactive	MIC (Candida parapsilosis [1]): inactive; MIC (Pichia sporocuriosa): inactive; MIC (Candida albicans [5]; MTCC 3017, 24 h): 300 µg/mL (≈ 710 µM); MIC (Pichia kudriavzevii): inactive; MIC ([Candida] aaseri [8]): inactive; MIC (Nakaseomyces glabratus [12]): inactive; MIC (Candida albicans [13]): 300 µg/mL (≈ 710 µM)
NC[C@@H]1O[C@H](O[C@H]2[C@@H](O)[C@H](O[C@@H]3[C@@H](O)[C@H](N)C[C@H](N)[C@H]3O[C@H]3O[C@H](CN)[C@@H](O)[C@H](O)[C@H]3N)O[C@@H]2CO)[C@H](N)[C@@H](O)[C@@H]1O [FRAMYCETIN]	–	–	18.8 (≈ 30.5 µM)	18.8 (≈ 30.5 µM)	–	–	–	18.8 (≈ 30.5 µM)	–	–	–	–	–	–	–	–	–	–	–	–	MIC (Pseudomonas aeruginosa; MTCC 2453, 24 h): 18.8 µg/mL (≈ 30.5 µM)
COc1cccc2c1C(=O)c1c(O)c3c(c(O)c1C2=O)C[C@@](O)(C(=O)CO)C[C@@H]3O[C@H]1C[C@H](N)[C@H](O)[C@H](C)O1 [DOXORUBICIN]	–	–	–	–	–	–	–	–	–	–	–	–	–	< 1	–	–	–	–	–	–	–
